{"source": "patent US8524861B2", "about": "“Treatment of bacterial infections” (priority 2004, dated 2013)", "format_in_all_cases": "cell-based", "key": {"[1]": {"tested_on": "Pseudomonas aeruginosa (ATCC strain 9027)", "conditions": "summary in description", "protocol": "Bacterial Stocks—ATCC derived stock bacteria were obtained from Oxoid Limited. Pseudomonas aeruginosa (ATCC strain 9027) or Staphylococcus aureus (ATCC strain 6538P) were obtained in ‘Cultiloop’ format. Stocks were prepared by inoculating 20 ml of LB broth with a single Cultiloop, and incubating overnight at 37° C. Cells present after overnight incubation were harvested by removing larger aggregates by centrifugation (3000 g, 10 minutes), and withdrawing 16 ml of the supernatant, which was likely to contain mainly planktonic bacteria. To this, 4 ml of sterile glycerol was added (the latter having been sterilised by autoclaving). The resultant suspension was divided between 15× 1 ml cryovials before freezing at −85° C.\nPreliminary experiments were carried out to estimate the amount to dilute bacterial stocks which when on addition of 25 μl of diluted stock to 100 μl of fresh LB broth would result in bacteria in log phase growth after overnight incubation at 37° C.\nThe peptides were examined for antibacterial efficacy against Staphylococcus aureus. To test the efficacy of peptides, dilutions of test peptides or PBS (for use as a control) were prepared in LB broth, and 100 μl aliquots of these placed in 96-well plates. A vial of planktonic bacterial stock was thawed in a 37° C. incubator and diluted to the level previously determined which would produce log phase growth after overnight incubation (see above). 25 μl of this bacterial dilution was then added to the test wells (some wells containing LB broth without peptide were left without any bacterial inoculation, these being used as a blank). After overnight growth, the concentration of bacteria in individual wells was assessed by measuring absorbance at 620 nm, in a microplate spectrophotometer. The average absorbance of wells for specific concentrations of peptides was calculated, and from this the percentage inhibition (relative to untreated wells) was also calculated and plotted against concentration (along with an estimate of error on that % inhibition).\nPeptides in accordance with the invention were also examined for antibacterial efficacy against Pseudomonas aeruginosa using the same technique as described above to calculate the IC50 values.\nPoints were obtained by dividing the average for six treated wells by the average for six untreated wells, and bars show an estimate of the error for these calculated values.\nThe inventor constructed an expanded library of peptides derived from either apolipoprotein B or apolipoprotein E in order to further evaluate polypeptides in accordance with the invention. Further experiments were then conducted to investigate the antibacterial activity of this peptide library against the bacteria P. aeroginosa, S. aureus and S. pneumoniae. The methods used to determine the IC50 values for each peptide were as described in the Example 1."}, "[2]": {"tested_on": "Pseudomonas aeruginosa", "assay": "Antibacterial efficacy on peptide pre-treated contact lenses", "conditions": "lens pre-treated with 250 μM peptide for 2 hours", "protocol": "Referring to FIG. 2, there is shown a bar graph illustrating growth of Pseudomonas aeruginosa overnight on Johnson and Johnson Acuvue contact lenses following pre-treatment with polypeptide GIN 1p, or a control treatment. Growth was measured by examination by light microscopy, and by assessing metabolic activity of any bacteria present using MTT reduction. The data illustrates the efficacy of the antibacterial nature of the peptides according to the invention when applied to contact lenses. Antibacterial activity was assessed by measuring MTT reduction.\nLenses were placed in 24-well plates before treatment with 75 μl of 250 μM GIN-1p in PBS (pH7.4) or with 75 μl of PBS and incubated for 2 hours at […], before removal of these solutions from the lens by aspiration. A further 1 ml of PBS was then added to the wells to wash away any loosely attached peptide, before aspiration of this wash solution. […]\nThe plates were returned to the incubator at 37° C. overnight. […] The degree of formazan production was assessed by measuring absorbance at 540 nm for aliquots of these solutions; these values are shown in FIG. 2, and represent the average for four lenses, with the bars showing standard deviation. […]"}, "[3]": {"tested_on": "Pseudomonas aeruginosa", "protocol": "To test the effect of treatment of the polypeptides according to the invention by autoclaving, a 400 μM stock solution of GIN1p was prepared in PBS, and 420 μl aliquots were placed in four Eppendorf tubes (with screw lids). After securing the lids, two of the tubes were loaded into a metal rack held within a Pyrex beaker, and placed into a Prestige Medical Clinical Autoclave. The remaining two tubes were left untreated, as a control. The autoclave was then activated, and underwent two autoclave cycles, each of which involved exposure of the peptide solutions to 126° C. for 11 min. Finally, efficacy of the two autoclaved and the two control peptide samples against P. aeruginosa was tested as previously described.\nReferring to FIG. 7, there is shown the level of growth of Pseudomonas aeruginosa after exposure of a bacterial inoculum to various concentrations of GIN 1p (a polypeptide in accordance with the present invention) which had been either autoclaved or without autoclaving, expressed as a % of growth for untreated bacteria. Accordingly, polypeptides according to the invention are therefore suitable for use with products, which would normally be sterilised by autoclaving during the manufacturing procedure."}}, "note": "pIC50: −log10 of the molar value."}
{"substance": "Ac-LRKLRKRLLLRKLRKRLL-NH2 [MU_10]", "values": [{"measurement": "Effectiveness against Pseudomonadales, in particular P. aeruginosa, in words", "setting": "[1]", "result": "particularly effective"}, {"measurement": "Appearance of solution containing pre-treated contact lens after overnight incubation", "setting": "[2]; 10^4 challenge organisms, FIG. 3", "result": "colourless"}, {"measurement": "Bacterial growth on contact lens surface by light micrograph after overnight incubation", "setting": "[2]; FIG. 4", "result": "minimal bacterial growth"}, {"measurement": "pIC50", "setting": "[3]", "result": "~5.70"}]}
